Test results reported in PMC10052652 (Molecules, 2023).
“And” between values parts separate entries of the source, which are not always exact repeats. Identical values can stand only once. Like-named read-outs stand apart in the source and are kept apart here.

Key:
[1] = ABTS radical cation scavenging assay; settings: for ABTS Assay %: at 100 µM
Method: ABTS (2,2′-azinobis-3-ethylbenzothiazoline-6-sulfonate) assay
The radical scavenging capacity of antioxidants for the ABTS radical cation was evaluated following this method: ABTS was prepared by adding 7 mM solution of ABTS at pH 7.4 (5 mM NaH2PO4, 5 mM Na2HPO4, and 154 mM NaCl) with 2.5 mM potassium persulfate. The mixture was stored at room temperature for 16 h in the dark before use and prepared […]. Once diluted with persulfate buffer, the absorbance of the mixture yielded an absorbance value of 0.70 ± 0.05 units at 734 nm. Then, 20 µL of each tested sample was mixed with fresh ABTS solution (180 µL), then the absorbance was measured 6 min after the initial mixing. Ascorbic acid was used as a standard. The capacity of free radical scavenging was expressed as a percentage of the inhibition values. The percentage of inhibition is calculated using the same expression employed in the DPPH assay.

[2] = target: T1, superoxide dismutase (SOD) (Homo sapiens, UniProt P00441); assay type: biochemical; settings: at 100 µM
T1 sequence (P00441 whole entry): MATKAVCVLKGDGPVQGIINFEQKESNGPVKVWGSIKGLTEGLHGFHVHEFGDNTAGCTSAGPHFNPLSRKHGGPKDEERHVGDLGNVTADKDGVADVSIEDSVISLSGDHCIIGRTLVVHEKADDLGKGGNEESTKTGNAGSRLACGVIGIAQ

[3] = target: acetylcholinesterase (AChE) (Homo sapiens, UniProt P22303); assay type: biochemical; settings: at 100 µM
Sequence of acetylcholinesterase (AChE) (P22303 32-614, species assumed): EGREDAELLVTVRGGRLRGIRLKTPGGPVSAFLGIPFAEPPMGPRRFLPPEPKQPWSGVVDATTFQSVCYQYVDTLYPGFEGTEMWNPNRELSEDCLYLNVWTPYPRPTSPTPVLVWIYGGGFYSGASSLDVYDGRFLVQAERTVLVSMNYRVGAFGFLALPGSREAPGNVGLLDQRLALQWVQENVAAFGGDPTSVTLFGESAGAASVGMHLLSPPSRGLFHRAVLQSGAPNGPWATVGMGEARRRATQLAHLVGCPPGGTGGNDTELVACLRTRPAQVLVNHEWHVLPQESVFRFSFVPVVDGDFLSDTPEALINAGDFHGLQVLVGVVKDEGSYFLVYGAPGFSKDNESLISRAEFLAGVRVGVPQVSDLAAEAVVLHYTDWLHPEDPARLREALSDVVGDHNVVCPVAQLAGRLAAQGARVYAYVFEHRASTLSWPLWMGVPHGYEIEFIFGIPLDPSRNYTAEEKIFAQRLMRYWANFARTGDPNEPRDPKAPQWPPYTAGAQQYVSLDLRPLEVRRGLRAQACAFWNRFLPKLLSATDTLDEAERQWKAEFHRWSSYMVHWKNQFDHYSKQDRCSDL

SKOV-3 cells = test: Cytotoxic activity, MTT assay, SKOV-3; assay type: cell-based, human
MCF7 cells = test: Cytotoxic activity, MTT assay, MCF7; assay type: cell-based, human
Method: Optical density was measured at 540 nm. All tests were established in triplicate.

OVCAR-3 cells = test: Cytotoxic activity, MTT assay, OVCAR-3; assay type: cell-based; settings: Homo sapiens, OVCAR-3, 72 h, read-out: IC50 OVCAR-3
Method: (§1) The cancer cell lines used in this study were HCT116 (colorectal carcinoma), IGROV1 (ovarian cancer), OVCAR3 (ovarian cancer), and MCF7 (mammary gland/breast cancer). […] Cell lines were maintained in culture and were incubated at 37 °C in an incubator with 5% CO2 in a humidified atmosphere. All tests were established at 80% of confluence, and viability was estimated with a trypan blue exclusion assay.
(§2) The cytotoxic activities of molecules against cancer cell lines were evaluated using an MTT assay. The MTT colorimetric assay was performed using 96-well plates. Cells were seeded in a 96-well plate, at a concentration of 10 × 10^3 cells/well for HCT116 and 12 × 10^3 cells/well for MCF7, IGROV1, and OVAR. Adherent cells were dispatched and incubated at 37 °C overnight in a 5% CO2-enriched atmosphere. […] After that, the medium was removed, and cells were treated with 50 µL of 3-(4,5-dimethylthazolk-2-yl)-2,5-diphenyl tetrazolium bromide (MTT) solution (3 mg/mL in PBS) at 37 °C for 20 to 40 min. To dissolve the […], we added 80 µL of 100% DMSO. Optical density was measured at 540 nm. All tests were established in triplicate. […]

xanthine oxidase (XOD) = xanthine oxidase (XOD) (Homo sapiens, UniProt P47989); test: biochemical
Sequence of xanthine oxidase (XOD) (P47989 whole entry, species assumed): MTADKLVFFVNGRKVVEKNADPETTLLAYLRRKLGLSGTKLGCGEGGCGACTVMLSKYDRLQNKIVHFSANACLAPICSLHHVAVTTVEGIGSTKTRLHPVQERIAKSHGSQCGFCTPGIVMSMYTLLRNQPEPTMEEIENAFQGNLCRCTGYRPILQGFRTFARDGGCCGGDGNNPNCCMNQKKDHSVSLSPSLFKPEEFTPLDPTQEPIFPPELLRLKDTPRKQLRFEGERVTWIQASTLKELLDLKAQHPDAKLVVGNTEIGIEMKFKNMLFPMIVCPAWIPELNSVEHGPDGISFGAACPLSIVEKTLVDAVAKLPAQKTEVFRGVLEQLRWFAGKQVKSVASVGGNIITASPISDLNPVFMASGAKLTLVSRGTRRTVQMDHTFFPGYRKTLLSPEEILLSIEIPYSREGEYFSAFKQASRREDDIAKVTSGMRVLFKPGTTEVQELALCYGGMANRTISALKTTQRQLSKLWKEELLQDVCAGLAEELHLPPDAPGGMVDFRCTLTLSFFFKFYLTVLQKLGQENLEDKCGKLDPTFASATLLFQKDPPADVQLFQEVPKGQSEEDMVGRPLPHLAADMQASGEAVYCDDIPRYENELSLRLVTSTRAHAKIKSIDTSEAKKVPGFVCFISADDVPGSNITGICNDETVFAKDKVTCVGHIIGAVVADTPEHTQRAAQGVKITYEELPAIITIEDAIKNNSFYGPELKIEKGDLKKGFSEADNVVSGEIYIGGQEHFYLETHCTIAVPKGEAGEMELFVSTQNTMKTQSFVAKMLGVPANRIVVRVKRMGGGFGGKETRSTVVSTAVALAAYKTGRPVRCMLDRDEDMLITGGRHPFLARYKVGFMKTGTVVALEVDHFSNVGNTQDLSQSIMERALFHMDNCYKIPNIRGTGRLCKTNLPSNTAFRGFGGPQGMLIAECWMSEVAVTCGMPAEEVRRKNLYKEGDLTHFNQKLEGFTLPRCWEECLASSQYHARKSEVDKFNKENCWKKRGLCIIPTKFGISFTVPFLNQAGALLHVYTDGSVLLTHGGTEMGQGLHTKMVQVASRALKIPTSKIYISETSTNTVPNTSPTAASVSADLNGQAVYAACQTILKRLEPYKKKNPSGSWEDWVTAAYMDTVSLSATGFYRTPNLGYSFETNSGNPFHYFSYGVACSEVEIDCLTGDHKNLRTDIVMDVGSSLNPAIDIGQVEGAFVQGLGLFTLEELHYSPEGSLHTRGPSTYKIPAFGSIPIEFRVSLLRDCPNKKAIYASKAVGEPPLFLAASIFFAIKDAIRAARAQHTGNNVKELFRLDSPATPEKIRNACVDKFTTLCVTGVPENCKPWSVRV
Method: Anti-xanthine oxidase activity was assayed spectrophotometrically under aerobic conditions. First, 50 µL (50 µg/mL) of samples were added to 60 µL of phosphate buffer (pH 7.5) and 30 µL of xanthine oxidase enzyme solution (0.01 units/mL in phosphate buffer; pH 7.5). After pre-incubation at 25 °C for 15 min, the reaction was initiated by the addition of 60 µL of xanthine substrate solution (prepared in the same buffer). The assay mixture was incubated at 25 °C for 5 min. […] The assay was performed in triplicate. […] Tests were carried out in triplicate.

HCT116 cells = test: Cytotoxic activity, MTT assay, HCT116; assay type: cell-based, human
Method: as §1, §2

α-amylase = target: T2, α-amylase (Homo sapiens, UniProt P04746); test: Anti-α-amylase activity (starch/DNS); settings: for Anti α-Amylase %: at 100 µM
T2 sequence (P04746 16-511): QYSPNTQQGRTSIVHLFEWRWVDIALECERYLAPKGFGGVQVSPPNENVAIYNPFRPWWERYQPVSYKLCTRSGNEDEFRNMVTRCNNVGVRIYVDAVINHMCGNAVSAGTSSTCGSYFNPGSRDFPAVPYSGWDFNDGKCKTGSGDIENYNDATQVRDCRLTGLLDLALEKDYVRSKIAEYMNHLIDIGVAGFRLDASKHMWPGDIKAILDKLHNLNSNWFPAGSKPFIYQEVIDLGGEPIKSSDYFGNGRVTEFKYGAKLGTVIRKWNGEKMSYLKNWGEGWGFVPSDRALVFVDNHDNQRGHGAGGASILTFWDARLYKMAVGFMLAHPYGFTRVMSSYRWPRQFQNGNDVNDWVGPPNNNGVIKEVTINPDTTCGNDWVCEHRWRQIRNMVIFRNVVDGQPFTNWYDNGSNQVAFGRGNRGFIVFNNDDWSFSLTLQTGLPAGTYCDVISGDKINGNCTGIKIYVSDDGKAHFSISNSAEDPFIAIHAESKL

[4] = target: T1, superoxide dismutase (SOD); test: biochemical
Method: Pyrogallol auto-oxidation due to oxygen in the air can be inhibited by an enzyme that is naturally present in the body: superoxide dismutase (SOD). Furthermore, variations in the pyrogallol auto-oxidation rate in the presence of SOD were evaluated. Tests were carried out in triplicate. The objective was to find an inhibitor of the auto-oxidation of pyrogallol in the presence of a SOD enzyme solution. Samples were tested at a concentration of 50 µg/mL, followed by incubation for 4 min at 25 °C. […] The self-oxidation of pyrogallol was evaluated in the absence of the enzyme. For this, 30 µL of pyrogallol was added to 120 µL of tris buffer (in place of the SOD) (pH 8.5), then followed by the same steps of incubating a positive control (without the molecule); this was performed in the presence of 5% of DMSO to evaluate the percentage of SOD inhibition activity on the auto-oxidation of pyrogallol.

[5] = Homo sapiens, SK-OV-3, 72 h, read-out: IC50 SKOV-3, MTT, 72 h
[6] = Homo sapiens, HCT-116, 72 h, read-out: IC50 HCT116, MTT, 72 h
[7] = read-out: IC50 HCT116, MTT, 72 h

| Structure (SMILES) | IC50 [1] | Anti SOD % [2] | Anti ACHE % [3] | IC50 (SKOV-3 cells; [5]) | IC50 (MCF7 cells; Homo sapiens, MCF7, 72 h) | IC50 (OVCAR-3 cells) | IC50 (xanthine oxidase (XOD); read-out: Anti XOD IC50) | IC50 (HCT116 cells; [6]) | IC50 (α-amylase) | Anti α-Amylase % (α-amylase) | IC50 ([4]; read-out: Anti SOD IC50) | IC50 (xanthine oxidase (XOD)) | IC50 (HCT116 cells; [7]) | IC50 ([4]; Anti SOD IC50) | ABTS Assay % [1] | IC50 (MCF7 cells; 72 h) | IC50 (SKOV-3 cells; read-out: IC50 SKOV-3, MTT, 72 h) |
| --- | --- | --- | --- | --- | --- | --- | --- | --- | --- | --- | --- | --- | --- | --- | --- | --- | --- |
| COc1ccc(-c2oc3c(CC=C(C)C)c(O[C@@H]4O[C@H](CO)[C@@H](O)[C@H](O)[C@H]4O)cc(O)c3c(=O)c2O[C@@H]2O[C@@H](C)[C@H](O)[C@@H](O)[C@H]2O)cc1 [Molecule M2, Icariin] | 20.1 ± 0.1 µM | 61.7 ± 1.1% | 19.3 ± 0.3% | > 50 µM | > 100 µM | > 50 µM | > 100 µM | > 50 µM | 14.1 ± 2.1 µM | 58.1 ± 2.2% | > 50 µM | – | – | – | – | – | – |
| O=c1cc(-c2cccc(O)c2)oc2ccc3ccccc3c12 [Molecule M9, 3′-hydroxy-b-naphthoflavone] | > 100 µM | 19.8 ± 2.9% | 47.9 ± 4.0% | > 50 µM | > 50 µM | > 50 µM | > 100 µM | > 50 µM | 2 ± 0.2 µM | 86.6 ± 2.3% | > 100 µM | – | – | – | – | – | – |
| O=c1cc(-c2ccccc2)oc2cc(O)cc(O)c12 [Molecule M1, 5,7-dihydroxyflavone] | > 50 µM | 41.5 ± 1.8% | 45.8 ± 1.3% | > 50 µM | 35.9 ± 0.8 µM | > 50 µM | – | > 100 µM | 36.6 ± 0.2 µM | 59.7 ± 2.0% | – | > 100 µM | > 50 µM | > 100 µM | – | – | – |
| O=c1cc(-c2ccccc2)oc2cc(O)c(O)c(O)c12 [Molecule M7, 5,6,7-trihydroxyflavone] | 6.3 ± 0.1 µM | 71.2 ± 2.3% | 62.0 ± 1.9% | 15.6 ± 0.1 µM | 33.1 ± 1.4 µM | > 50 µM | > 100 µM | 38.5 ± 1.3 µM | 3.4 ± 0.1 µM | 96.9 ± 1.7% | 31.5 ± 0.5 µM | – | – | 36.5 ± 1.2 µM | – | – | – |
| O=c1cc(-c2ccccc2)oc2cccc(O)c12 [Molecule M4, 5-hydroxyflavone] | > 100 µM | 25.9 ± 2.5% | – | > 50 µM | > 50 µM | > 50 µM | – | > 100 µM | 37.9 ± 0.8 µM | 58.4 ± 1.4% | – | > 100 µM | > 50 µM | > 100 µM | 16.0 ± 1.5% | > 100 µM | – |
| O=c1cc(-c2cc(O)cc(O)c2)oc2ccccc12 [Molecule M8, 3′,5′-dihydroxyflavone] | 7.3 ± 0.1 µM | 52.3 ± 0.9% | 49.3 ± 2.2% | > 50 µM | 40.4 ± 0.7 µM | > 50 µM | 2.3 ± 0.1 µM | 33.1 ± 0.1 µM | 14.9 ± 0.3 µM | 104.8 ± 3.5% | > 50 µM | – | – | – | – | – | – |
| O=c1cc(-c2ccccc2)oc2cc(O)ccc12 [Molecule M5, 7-hydroxyflavone] | > 100 µM | 74.3 ± 3.1% and 74.3 ± 3.02% | – | > 50 µM | > 50 µM | > 50 µM | > 100 µM | > 100 µM | 1.2 ± 0.1 µM | 90.3 ± 3.2% | 36.5 ± 1.2 µM | – | > 50 µM | – | 5.9 ± 0.4% | – | – |
| O=c1cc(-c2cccc(O)c2)oc2cc(O)ccc12 [Molecule M13, 7,3′-dihydroxyflavone] | 24.5 ± 0.1 µM | 56.6 ± 1.7% | 63.9 ± 3.3% | 42.1 ± 0.7 µM | 38.5 ± 1.2 µM | > 50 µM | 0.9 ± 0.2 µM | 39.3 ± 0.8 µM | 1.4 ± 0.1 µM | 91.7 ± 4.9% | > 50 µM | – | – | – | – | – | – |
| O=c1cc(-c2ccccc2)oc2ccc(O)cc12 [Molecule M3, 6-hydroxyflavone] | 24 ± 0.1 µM | 54.8 ± 3.2% | – | > 100 µM | > 50 µM | 44.7 ± 1.2 µM | > 100 µM | > 100 µM | 10.9 ± 0.1 µM | 90.3 ± 3.2% | > 50 µM | – | > 50 µM | – | – | – | > 50 µM |
| COc1cc(-c2cc(=O)c3ccc4c(O)cccc4c3o2)cc(OC)c1OC [Molecule M18, 7-hydroxy-3′,4′,5′-trimethoxy-α-naphthoflavone] | > 50 µM | 32.7 ± 3.9% | 43.3 ± 1.8% | 37.3 ± 1 µM | > 50 µM | > 50 µM | > 100 µM | 45 ± 0.9 µM | > 100 µM | – | > 100 µM | – | – | – | – | – | – |
